Experimental data as given in the supplement of paper PMC10307832.

Columns and labels:
Test in all cases: relative viability (nuclei count vs DMSO), 5 days (fraction); higher = more cells survive
[1] = compound: COc1cc([C@@H]2c3cc4c(cc3[C@@H](O[C@@H]3O[C@@H]5CO[C@@H](C)O[C@H]5[C@H](O)[C@H]3O)[C@H]3COC(=O)[C@H]23)OCO4)cc(OC)c1O [Etoposide] + Nc1ncn([C@H]2C[C@H](O)[C@@H](CO)O2)c(=O)n1 [Decitabine] (partner 2 µM)
Summary of the method: (§1)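 Relative viability divides the nuclei count in treated wells by that in vehicle wells. Lung cancer cell lines were seeded in 1536-well plates, dosed by pin tool the next day, and fixed and stained after 5 days in one step with final 0.05% Triton X-100, 1% formaldehyde and 1 ug/ml Hoechst. Dosing was a single drug or a fixed anchor-drug dose plus five library-drug doses (not always all listed) in √10 steps, and values are medians of duplicate plates imaged at 4×.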

[2] = compound: COc1cc([C@@H]2c3cc4c(cc3[C@@H](O[C@@H]3O[C@@H]5CO[C@@H](C)O[C@H]5[C@H](O)[C@H]3O)[C@H]3COC(=O)[C@H]23)OCO4)cc(OC)c1O [Etoposide] + C[C@@H](Oc1cc(-c2cnn(C3CCNCC3)c2)cnc1N)c1c(Cl)ccc(F)c1Cl [Crizotinib] (partner 1 µM)
Summary of the method: as §1

[3] = compound: CC1=C(N=C(N=C1N)[C@H](CC(=O)N)NC[C@@H](C(=O)N)N)C(=O)N[C@@H]([C@H](C2=CN=CN2)OC3C(C(C(C(O3)CO)O)O)OC4C(C(C(C(O4)CO)O)OC(=O)N)O)C(=O)N[C@H](C)[C@H]([C@H](C)C(=O)N[C@@H]([C@@H](C)O)C(=O)NCCC5=NC(=CS5)C6=NC(=CS6)C(=O)NCCC[S+](C)C)O [Bleomycin] + CC(=O)c1c(C)c2cnc(Nc3ccc(N4CCNCC4)cn3)nc2n(C2CCCC2)c1=O [Palbociclib] (partner 0.5 µM); conditions: main component drawn
Summary of the method: as §1

[4] = compound: CC1=C(N=C(N=C1N)[C@H](CC(=O)N)NC[C@@H](C(=O)N)N)C(=O)N[C@@H]([C@H](C2=CN=CN2)OC3C(C(C(C(O3)CO)O)O)OC4C(C(C(C(O4)CO)O)OC(=O)N)O)C(=O)N[C@H](C)[C@H]([C@H](C)C(=O)N[C@@H]([C@@H](C)O)C(=O)NCCC5=NC(=CS5)C6=NC(=CS6)C(=O)NCCC[S+](C)C)O [Bleomycin] + NC(=O)Nc1cc(-c2cccc(F)c2)sc1C(=O)N[C@H]1CCCNC1 [AZD7762] (partner 0.2 µM); conditions: main component drawn
Summary of the method: as §1

Cell Line | relative viability ([1]; first compound 0.01 µM) | relative viability ([1]; first compound 0.03162 µM) | relative viability ([1]; first compound 0.1 µM) | relative viability ([1]; first compound 0.3162 µM) | relative viability ([1]; first compound 1 µM) | relative viability ([2]; first compound 0.01 µM) | relative viability ([2]; first compound 0.03162 µM) | relative viability ([2]; first compound 0.1 µM) | relative viability ([2]; first compound 0.3162 µM) | relative viability ([2]; first compound 1 µM) | relative viability ([3]; first compound 0.01 µM) | relative viability ([3]; first compound 0.03162 µM) | relative viability ([3]; first compound 0.1 µM) | relative viability ([3]; first compound 0.3162 µM) | relative viability ([3]; first compound 1 µM) | relative viability ([4]; first compound 0.01 µM) | relative viability ([4]; first compound 0.03162 µM) | relative viability ([4]; first compound 0.1 µM) | relative viability ([4]; first compound 0.3162 µM) | relative viability ([4]; first compound 1 µM)
NCI-H1650 | 0.346 | 0.314 | 0.355 | 0.195 | 0.182 | 0.874 | 0.776 | 0.634 | 0.253 | 0.16 | 0.215 | 0.222 | 0.153 | 0.176 | 0.191 |  |  |  |  | 
NCI-H1299 |  |  |  |  |  | 0.965 | 1 | 1.04 | 0.948 | 0.757 |  |  |  |  |  |  |  |  |  | 
EBC-1 |  |  |  |  |  | 0.189 | 0.202 |  | 0.197 | 0.194 |  |  |  |  |  |  |  |  |  | 
NCI-H2342 | 0.599 | 0.677 | 0.477 | 0.373 | 0.368 |  |  |  |  |  | 0.553 | 0.546 | 0.519 | 0.488 | 0.433 | 0.5 | 0.611 | 0.495 | 0.589 | 0.42
NCI-H661 | 0.558 | 0.671 | 0.477 | 0.46 | 0.343 | 1.03 | 0.981 | 0.997 | 0.845 | 0.736 | 0.39 | 0.398 | 0.354 | 0.335 | 0.312 |  |  |  |  | 
COR-L23 | 0.407 | 0.471 | 0.337 | 0.377 | 0.176 | 0.548 | 0.68 | 0.802 | 0.45 | 0.198 | 0.184 | 0.237 | 0.151 | 0.115 | 0.0887 |  |  |  |  | 
COR-L 105 | 0.616 | 0.613 | 0.567 | 0.605 | 0.569 | 0.675 | 0.51 | 0.709 | 0.644 | 0.543 | 0.389 | 0.37 | 0.435 | 0.392 | 0.395 |  |  |  |  | 
NCI-H2023 | 0.246 | 0.247 | 0.204 | 0.146 | 0.109 | 0.605 | 0.622 | 0.525 | 0.212 | 0.106 | 0.333 | 0.302 | 0.25 | 0.125 | 0.13 |  |  |  |  | 
NCI-H1793 |  | 0.497 | 0.454 | 0.345 | 0.236 |  |  |  |  |  | 0.316 | 0.302 | 0.313 | 0.216 | 0.19 | 0.316 | 0.564 | 0.341 | 0.159 | 0.177
NCI-H596 | 0.826 | 1.05 | 1.09 | 1.01 | 0.857 | 1.02 | 0.96 |  | 0.808 | 0.681 |  |  |  |  |  | 1.06 | 1.03 | 0.891 | 0.349 | 0.398
